In ChEMBL document CHEMBL4251689, “Azabicyclic Fused Pyrimidine Derivatives Useful for the Treatment of Alzheimer's Disease” (ACS Med Chem Lett, 2018):

Target: Gamma-secretase
Assay: Inhibition of gamma-secretase (unknown origin) assessed as reduction in amyloid beta (1 to 42) production after 60 mins by cell based AlphaLisa assay
Parameters: species or system Homo sapiens

EC50 | Compound
35 nM | CNc1nc(N[C@@H]2[C@@H]3CC[C@H]2CN(c2cc(C)ncn2)C3)nc2c1C(C)(C)CCN2c1ccc(F)cc1
14 nM | CNc1nc(N[C@@H]2[C@@H]3CC[C@H]2CN(c2cc(C)ncn2)C3)nc2c1C(C)(C)CN2c1ccc(F)cc1

The remaining lines, values behind:

Compound | EC50
CNc1nc(N[C@@H]2[C@@H]3CC[C@H]2CN(c2ccnnc2)C3)nc2c1C(C)(C)CN2c1ccc(F)cc1 | 19 nM
CNc1nc(N[C@@H]2[C@@H]3CC[C@H]2CN(c2cc(C)ncn2)C3)nc2c1C(C)(C)CN2C1CC(F)(F)C1 | 36 nM
CNc1nc(N[C@@H]2[C@@H]3CC[C@H]2CN(c2nnc(C)o2)C3)nc2c1C(C)(C)CN2c1ccc(F)cc1 | 34 nM
CNc1nc(N[C@@H]2[C@@H]3CC[C@H]2CN(c2cc(C)ncn2)C3)nc2c1C(C)(C)CN2C12CC(C(F)(F)F)(C1)C2 | 111 nM
